We go through 22 molecules from patent US20260347338A1, “PYRIMIDINE/PYRIDINE DERIVATIVES OR SALTS THEREOF AND PHARMACEUTICAL COMPOSITIONS COMPRISING THE SAME” (YUHAN CORPORATION, priority 2023, published 2026).

Counter-ions that a name gives are not always drawn.

T1 sequence (Q92918 whole entry): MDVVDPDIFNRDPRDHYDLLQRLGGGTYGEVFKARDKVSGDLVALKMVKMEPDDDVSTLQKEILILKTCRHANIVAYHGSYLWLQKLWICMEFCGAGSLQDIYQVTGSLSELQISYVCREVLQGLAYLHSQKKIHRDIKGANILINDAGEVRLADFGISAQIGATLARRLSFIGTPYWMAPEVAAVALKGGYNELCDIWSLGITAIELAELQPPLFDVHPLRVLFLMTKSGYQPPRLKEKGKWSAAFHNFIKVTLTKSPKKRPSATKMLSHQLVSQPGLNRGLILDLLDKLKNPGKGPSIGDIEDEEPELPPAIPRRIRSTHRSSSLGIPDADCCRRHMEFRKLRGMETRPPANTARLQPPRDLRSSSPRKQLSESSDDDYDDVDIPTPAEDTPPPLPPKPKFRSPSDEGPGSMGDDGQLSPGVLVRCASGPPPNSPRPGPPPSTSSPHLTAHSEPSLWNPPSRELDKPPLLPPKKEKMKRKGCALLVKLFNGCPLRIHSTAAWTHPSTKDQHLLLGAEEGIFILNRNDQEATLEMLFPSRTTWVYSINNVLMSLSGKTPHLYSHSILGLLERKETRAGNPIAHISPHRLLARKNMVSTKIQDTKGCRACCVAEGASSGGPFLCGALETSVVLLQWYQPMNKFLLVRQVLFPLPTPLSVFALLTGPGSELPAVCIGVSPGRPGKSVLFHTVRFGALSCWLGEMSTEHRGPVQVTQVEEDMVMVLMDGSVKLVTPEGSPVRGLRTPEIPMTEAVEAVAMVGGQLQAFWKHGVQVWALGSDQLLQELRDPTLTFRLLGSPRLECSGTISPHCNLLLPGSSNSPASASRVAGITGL

The test addresses T1, human recombinant HPK1 (Homo sapiens, UniProt Q92918).
T1 construct: purchased BPS Bioscience
Briefly: Inhibitory activity against human recombinant HPK1 (TR-FRET). It is filed as biochemical. To be noted: ULight-p70S6K peptide, ATP at Km, room temperature, 1 hour, 0.32 to 1000 nM compound. How it is done: Test Example: Evaluation of Inhibitory Activity Against Human Recombinant HPK1
The inhibitory activity against human recombinant HPK1 was evaluated using the Time-Resolved Fluorescence Resonance Energy Transfer (TR-FRET) technology of Perkin-Elmer. The test compound was prepared as a 20 mM stock solution with dimethyl sulfoxide (DMSO), serially diluted in a buffer solution, and used at final compound concentrations of 0.32 to 1000 nM. The evaluation of inhibitory activity was carried out at room temperature, using recombinant human HPK1 (BPS Bioscience). Briefly, recombinant human HPK1, serially diluted each test compound, ULight-p70S6K peptide substrate (PerkinElmer), and ATP at each concentration (Km and final concentration) were added to a kinase buffer solution (50 mM HEPES pH 7.4, 10 mM MgCl2, 1 mM EGTA, 3 mM MnCl2, 2 mM DTT, and 0.01% Tween-20). The resulting mixture was added to each well of a 384-well plate (Optiplate™ 384, white, PerkinElmer). The enzyme reaction was carried out at room temperature for 1 hour. After the reaction was suspended by adding 4 μL of a stop solution (10 mM EDTA) thereto, the mixture was stirred for 1 minute and then a detection solution containing Europium-labeled anti-phosphopeptide antibody (final concentration: 2 nM, PerkinElmer) was added thereto. The signals of TR-FRET at excitation wavelength (320 nm) and emission wavelength (665 nm) were detected using a microplate reader (Envision Multilabel Reader, Perkin-Elmer). Inhibition by the test compound was measured as % inhibition in the signals, compared to the control group treated with DMSO only. The IC50 value of each compound was calculated using the GraphPad Prism program (GraphPad Software, Inc., San Diego, CA, USA). The IC50 values of test compounds for inhibitory activity against HPK1 were classified as follows: • A: IC50≤10 nM • B: 10 nM<IC50≤50 nM • C: 50 nM<IC50≤100 nM • D: IC50>100 nM
In general terms: In TR-FRET formats the signal depends on donor and acceptor labels being close together.
Take `COc1cccc(F)c1-c1nccc(Nc2cc(N3CCC(CO)(CC(F)F)CC3)c(-c3cnn(C4CCOCC4)c3)cn2)n1` [Example 47, (4-(2,2-difluoroethyl)-1-(2-((2-(2-fluoro-6-methoxyphenyl)pyrimidin-4-yl)amino)-5-(1-(tetrahydro-2H-pyran-4-yl)-1H-pyrazol-4-yl)pyridin-4-yl)piperidin-4-yl)methanol]: the concentration for half-maximal inhibition (IC50) – broadly, the concentration at which inhibition is half-maximal – is not above 10 nM.

As for `COc1cccc(F)c1-c1nccc(Nc2cc(N3CCC[C@H](O)C3)c(-c3ccc(CN4CCC(N(C)C)C4)nc3)cn2)n1` (stereo partly drawn) [Example 48, (3S)-1-(6′-((3-(dimethylamino)pyrrolidin-1-yl)methyl)-6-((2-(2-fluoro-6-methoxyphenyl)pyrimidin-4-yl)amino)-[3,3′-bipyridin]-4-yl)piperidin-3-ol], the IC50 was not above 10 nM.

Turning to `COc1cccc(F)c1-c1nccc(Nc2cc(N3CCC[C@H](O)C3)c(-c3ccc(CN4CCCC(O)C4)nc3)cn2)n1` (stereo partly drawn) [Example 49, 1-((6′-((2-(2-fluoro-6-methoxyphenyl)pyrimidin-4-yl)amino)-4′-((S)-3-hydroxypiperidin-1-yl)-[3,3′-bipyridin]-6-yl)methyl)piperidin-3-ol], the IC50 was more than 100 nM.

As for `COc1cccc(F)c1-c1nccc(Nc2cc(N3CCC[C@H](C(N)=O)C3)c(-c3cnn(C4CCOCC4)c3)cn2)n1` [Example 50, (S)-1-(2-((2-(2-fluoro-6-methoxyphenyl)pyrimidin-4-yl)amino)-5-(1-(tetrahydro-2H-pyran-4-yl)-1H-pyrazol-4-yl)pyridin-4-yl)piperidin-3-carboxamide], the IC50 was more than 100 nM.

For the molecule `COc1cccc(F)c1-c1nccc(Nc2cc(N3CCC[C@@H](C(N)=O)C3)c(-c3cnn(C4CCOCC4)c3)cn2)n1` [Example 51, (R)-1-(2-((2-(2-fluoro-6-methoxyphenyl)pyrimidin-4-yl)amino)-5-(1-(tetrahydro-2H-pyran-4-yl)-1H-pyrazol-4-yl)pyridin-4-yl)piperidin-3-carboxamide], the IC50 lay in the range of 50 to 100 nM.

For the molecule `COc1cccc(F)c1-c1nccc(Nc2cc(N3CCC[C@H](N)C3)c(-c3cnn(C4CCOCC4)c3)cn2)n1` [Example 52, (S)-N-(4-(3-aminopiperidin-1-yl)-5-(1-(tetrahydro-2H-pyran-4-yl)-1H-pyrazol-4-yl)pyridin-2-yl)-2-(2-fluoro-6-methoxyphenyl)pyrimidin-4-amine hydrochloride], the IC50 is not above 10 nM.

As to `COc1cccc(F)c1-c1nccc(Nc2cc(N3CCC[C@@H](N)C3)c(-c3cnn(C4CCOCC4)c3)cn2)n1` [Example 53, (R)-N-(4-(3-aminopiperidin-1-yl)-5-(1-(tetrahydro-2H-pyran-4-yl)-1H-pyrazol-4-yl)pyridin-2-yl)-2-(2-fluoro-6-methoxyphenyl)pyrimidin-4-amine], the half-inhibitory concentration (IC50) was not above 10 nM.

Turning to `COc1cccc(F)c1-c1nc(Nc2cc(N3CCC[C@H](O)C3)c(-c3ccc(C(=O)N4CCC(O)CC4)nc3)cn2)ccc1[N+](=O)[O-]` [Example 54, (6′-((6-(2-fluoro-6-methoxyphenyl)-5-nitropyridin-2-yl)amino)-4′-((S)-3-hydroxypiperidin-1-yl)-[3,3′-bipyridin]-6-yl)(4-hydroxypiperidin-1-yl)methanone], the IC50 lay within 10 to 50 nM.

`COc1cccc(F)c1-c1nccc(Nc2cc(N3CCC[C@H](O)C3)c(-c3ccc(CN4CCC(N)CC4)nc3)cn2)n1` [Example 55, (S)-1-(6′-((4-aminopiperidin-1-yl)methyl)-6-((2-(2-fluoro-6-methoxyphenyl)pyrimidin-4-yl)amino)-[3,3′-bipyridin]-4-yl)piperidin-3-ol hydrochloride]: the IC50 lay in the range of 10 to 50 nM.

Turning to `COc1cccc(F)c1-c1nccc(Nc2cc(N3CCC[C@H](O)C3)c(-c3ccc(C(F)(F)F)nc3)cn2)n1` [Example 57, (S)-1-(6-((2-(2-fluoro-6-methoxyphenyl)pyrimidin-4-yl)amino)-6′-(trifluoromethyl)-[3,3′-bipyridin]-4-yl)piperidin-3-ol], the IC50 lay within 50 to 100 nM.

In the case of `COc1cccc(F)c1-c1nc(Nc2cc(N3CCC[C@H](O)C3)c(-c3cnn(C4CCOCC4)c3)cn2)ccc1C` [Example 58, (3S)-1-(2-((6-(2-fluoro-6-methoxyphenyl)-5-methylpyridin-2-yl)amino)-5-(1-(tetrahydro-2H-pyran-4-yl)-1H-pyrazol-4-yl)pyridin-4-yl)piperidin-3-ol], the IC50 was more than 100 nM.

As to `COc1cccc(F)c1-c1nc(Nc2cc(N3CCC[C@H](O)C3)c(-c3cnn(C4CCOCC4)c3)cn2)ccc1C#N` [Example 59, 2-(2-fluoro-6-methoxyphenyl)-6-((4-((S)-3-hydroxypiperidin-1-yl)-5-(1-(tetrahydro-2H-pyran-4-yl)-1H-pyrazol-4-yl)pyridin-2-yl)amino)nicotinonitrile], the IC50 was not above 10 nM.

As for `COC(=O)c1ccc(Nc2cc(N3CCC[C@H](O)C3)c(-c3cnn(C4CCOCC4)c3)cn2)nc1-c1c(F)cccc1OC` [Example 60, methyl 2-(2-fluoro-6-methoxyphenyl)-6-((4-((S)-3-hydroxypiperidin-1-yl)-5-(1-(tetrahydro-2H-pyran-4-yl)-1H-pyrazol-4-yl)pyridin-2-yl)amino)nicotinate], the IC50 was not above 10 nM.

Turning to `COc1cccc(F)c1-c1nccc(Nc2cc(N3CCC[C@H](O)C3)c(-c3ccc4nccn4c3)cn2)n1` [Example 61, (S)-1-(2-((2-(2-fluoro-6-methoxyphenyl)pyrimidin-4-yl)amino)-5-(imidazo[1,2-a]pyridin-6-yl)pyridin-4-yl)piperidin-3-ol], the IC50 fell in the range of 10 to 50 nM.

In the case of `COc1cccc(F)c1-c1nccc(Nc2cc(N3CCC[C@H](O)C3)c(-c3ccc4nncn4c3)cn2)n1` [Example 62, (S)-1-(5-([1,2,4]triazolo[4,3-a]pyridin-6-yl)-2-((2-(2-fluoro-6-methoxyphenyl)pyrimidin-4-yl)amino)pyridin-4-yl)piperidin-3-ol], the IC50 is 50 to 100 nM.

As for `COc1cccc(F)c1-c1nccc(Nc2cc(N3CCC(CCN(C)C)CC3)c(-c3cnn(C4CCOCC4)c3)cn2)n1` [Example 64, N-(4-(4-(2-(dimethylamino)ethyl)piperidin-1-yl)-5-(1-(tetrahydro-2H-pyran-4-yl)-1H-pyrazol-4-yl)pyridin-2-yl)-2-(2-fluoro-6-methoxyphenyl)pyrimidin-4-amine], the IC50 was not above 10 nM.

For the molecule `COc1cccc(F)c1-c1nccc(Nc2cc(N3CCC(C4(O)CC4)CC3)c(-c3cnn(C4CCOCC4)c3)cn2)n1` [Example 65, 1-(1-(2-((2-(2-fluoro-6-methoxyphenyl)pyrimidin-4-yl)amino)-5-(1-(tetrahydro-2H-pyran-4-yl)-1H-pyrazol-4-yl)pyridin-4-yl)piperidin-4-yl)cyclopropan-1-ol], the IC50 was not above 10 nM.

For the molecule `COc1cccc(F)c1-c1nccc(Nc2cc(N3CCC(C(C)O)CC3)c(-c3cnn(C4CCOCC4)c3)cn2)n1` (stereo not shown) [Example 66, 1-(1-(2-((2-(2-fluoro-6-methoxyphenyl)pyrimidin-4-yl)amino)-5-(1-(tetrahydro-2H-pyran-4-yl)-1H-pyrazol-4-yl)pyridin-4-yl)piperidin-4-yl)ethan-1-ol], the IC50 was not above 10 nM.

With `COc1cccc(F)c1-c1nccc(Nc2cc(N3CCC(C(C)(C)CO)CC3)c(-c3cnn(C4CCOCC4)c3)cn2)n1` [Example 67, 2-(1-(2-((2-(2-fluoro-6-methoxyphenyl)pyrimidin-4-yl)amino)-5-(1-(tetrahydro-2H-pyran-4-yl)-1H-pyrazol-4-yl)pyridin-4-yl)piperidin-4-yl)-2-methylpropan-1-ol], the IC50 is not above 10 nM.

As for `COc1cccc(F)c1-c1nccc(Nc2cc(N3CCN(C)CC3)c(-c3cnn(C4CCOCC4)c3)cn2)n1` [Example 68, 2-(2-fluoro-6-methoxyphenyl)-N-(4-(4-methylpiperazin-1-yl)-5-(1-(tetrahydro-2H-pyran-4-yl)-1H-pyrazol-4-yl)pyridin-2-yl)pyrimidin-4-amine], the IC50 is 10 to 50 nM.

On to `O[C@H]1CCCN(c2cc(Nc3ccnc(-c4cc5nccnc5cc4F)n3)ncc2-c2cnn(C3CCOCC3)c2)C1` [Example 69, (S)-1-(2-((2-(7-fluoroquinoxalin-6-yl)pyrimidin-4-yl)amino)-5-(1-(tetrahydro-2H-pyran-4-yl)-1H-pyrazol-4-yl)pyridin-4-yl)piperidin-3-ol], for which the IC50 is not above 10 nM.

In the case of `COc1cccc(F)c1-c1nc(Nc2cc(N3CCC[C@H](N)C3)c(-c3cnn(C4CCOCC4)c3)cn2)ccc1[N+](=O)[O-]` [Example 70, 4-((S)-3-aminopiperidin-1-yl)-N-(6-(2-fluoro-6-methoxyphenyl)-5-nitropyridin-2-yl)-5-(1-(tetrahydro-2H-pyran-4-yl)-1H-pyrazol-4-yl)pyridin-2-amine hydrochloride], the IC50 was not above 10 nM.
